# Settings: buffer; pH 7.4; 200.0 µM
row,SMILES,solubility kinetic [µg/mL]
1,CC/C(C)=N/Oc1nc(C)cc(C)n1,28.5
2,CCOC(=O)C1(Cc2ccccc2C)CCCN(C(=O)CCC(=O)OC)C1 (centres undefined),53
3,Cc1c(NC(=O)c2cc(S(=O)(=O)N3CCCCC3)ccc2Cl)c(=O)n(-c2ccccc2)n1C,> 73.3
4,CC(C)(C)CC(=O)Nc1ccc(S(=O)(=O)NC2=NCCCCC2)cc1,> 54.8
5,CCCc1ccc(C(=O)NC(=O)c2ccccc2O)cc1,3.2
6,NS(=O)(=O)c1ccc(NC(=O)CSc2ncccn2)cc1,> 48.7
7,CCCN(CC(=O)Nc1ccccc1OC)C(=O)c1cc2ccccc2o1,25.5
8,Cc1cc(C)c2c(n1)sc1c(N3CCN(C)CC3)ncnc12,39.6
9,Clc1ccccc1OCCCCN1CCNCC1.O=C(O)C(=O)O,> 53.8
10,CN(Cc1ccccc1)C(=O)COC(=O)c1ccc(Br)c(S(=O)(=O)N2CCOCC2)c1,36.7
11,COc1ccc(C(=O)O)cc1S(=O)(=O)N1CCN(Cc2ccc3c(c2)OCO3)CC1,> 65.2
12,COC(=O)c1ccccc1Oc1ccc(NC(=O)CCCl)cc1,> 50.1
13,COc1ccc(NC(C)=O)cc1NC(=O)c1ccc2ccccc2c1,13
14,CC1(C)Cc2c(C#N)c(SCCO)nc(N3CCOCC3)c2CO1,> 52.4
15,O=C(Cc1ccc(Br)cc1)N1CCOCC1,38.8
16,CCOC(=O)c1cc2c(ccn2C)n1Cc1ccc(C#N)cc1,2.3
17,O=C(Nc1ccc(F)cc1)Nc1ccc2ccccc2n1,< 0.2
18,CN1C(=O)c2ccccc2Sc2ccc(C(=O)O)cc21,> 42.8
19,Cc1ccc(C(=O)Nc2ccc(NC(=O)c3ccco3)c(C)c2)cc1,2.8
20,CCOC(=O)Cc1csc(NC(=O)COc2ccc(C)cc2)n1,> 50.2
21,CCN1/C(=C/C(=S)Nc2ccccc2)Sc2ccccc21,6.7
22,COc1ccc(C(=O)NCCNc2ccccc2[N+](=O)[O-])cc1,36.3

row,SMILES,solubility kinetic [µg/mL]
1,Cc1cccc(NC(=O)N2CCCCCC2)c1,> 34.8
2,CC1CCCN(c2nc3nonc3nc2Nc2ccccc2F)C1 (centres undefined),0.8
3,COc1ccc2oc(=N)c(C(=O)Nc3ccccc3Cl)cc2c1,0.8
4,Cc1cccc(NC(=O)CN(C)C(=O)C2CCCC2)c1C,> 43.3
5,Fc1ccc(OCCOCCN2CCCC2)cc1,28
6,O/N=C/c1ccn(-c2ccc(Br)cc2)c1,2.6
7,O=C(NN=C1CCCC1)c1ccc(Cl)cc1,> 35.5
8,CC(C)CN1C(=O)NC2(CCCc3ccccc32)C1=O (centres undefined),> 40.9
9,COc1ccccc1CCn1c(N)cc(=O)[nH]c1=O,> 39.2
10,CC(=O)c1sc2c(c1N)c(=O)[nH]c(=O)n2-c1ccccc1,8.5
11,Cc1[nH]c(=S)c(C#N)c(-c2ccccc2)c1C(=O)Nc1ccccc1,> 51.8
12,Cc1ccc(NC(=O)CNc2cccc(Br)c2)cc1S(=O)(=O)N1CCOCC1,14.3
13,COc1ccc(-n2c(SCC(N)=O)nnc2-c2ccco2)cc1,> 49.6
14,CC(C)CNc1c2c(nc3ccccc13)CCC2.Cl,> 41.5
15,COC(=O)c1sccc1N/C=C(\C#N)S(=O)(=O)C(C)(C)C,2.3
16,Cc1ccc(C(C)C)c(OCCn2ccnc2C)c1.O=C(O)C(=O)O,46.7
17,COc1ccc(OCC(O)CNC(=O)Nc2cccc3ccccc23)cc1 (centres undefined),4.3
18,O=[N+]([O-])c1ccc(Cl)c(CN2CCN(c3ncccn3)CC2)c1,35.1
19,COc1ccccc1NC(=O)c1ccc(NC(=O)c2ccco2)cc1,8.5
20,COc1ccccc1CCNC(=O)c1ccc2nc[nH]c2c1,> 44.3
21,Cc1ccc(NC(=O)Cc2ncon2)cc1Cl,> 37.8
22,Cn1c(=O)c2c([nH]c(=S)n2CCCc2ccccc2)n(C)c1=O,35.8

# Source: PubChem BioAssay AID1996
